For two molecules, adverse effects noted, maximum tolerated dose and IC50 results are on record in US10143695B2 (priority 2016, dated 2018).

The structures appear in SMILES notation.

The conditions of data set [1]: Phase I clinical evaluation; cited from earlier work.
For data set [2], the system named is SKBR3 cells (HER2 expressing cells). Nature of the data set: CellTiter-Glo cell viability assay, SKBR3. The note with it: Homo sapiens, SK-BR-3; PBD compounds, 72 h incubation. In kind it is cell-based. The procedure: (§1) PBD compounds and conjugates thereof were evaluated for their antiproliferation properties in tumor cell lines in vitro using CellTiter-Glo® (Promega Corp). Cells were plated in black walled 96-well plate and allowed to adhere overnight at 37° C. in a humidified atmosphere of 5% CO2. BT474, SKBR3, NCI-N87 cells (HER2 expressing cells), JIMT1 cells (HER2 medium expression level cells) and MCF7 cells (HER2 low expressing levels cells) and were plated at a density of 5,000 cells per well. The next day the medium was replaced with 50 μL fresh medium and 50 μL of 2× stocks of PBD compounds or antibody-PBD conjugate were added to appropriate wells, mixed and incubated for 72 h. CellTiter-Glo® reagent was added to the wells at room temperature and the luminescent signal was measured after 10 min using a SpectraMax M5 plate reader (Molecular Devices). Dose response curves were generated using SoftMax Pro software. IC50 values were determined from four-parameter curve fitting.

Data set [3] deals with BT474 cells (HER2 expressing cells). In words: CellTiter-Glo cell viability assay, BT474. In kind it is cell-based. The following applies: Homo sapiens, BT-474; PBD compounds, 72 h incubation. The procedure: as §1
For orientation: ATP-based viability assays read luminescence as a measure of living cells.

The subject of data set [4] is JIMT1 cells (HER2 medium expression level cells). Nature of the data set: CellTiter-Glo cell viability assay, JIMT1. In kind it is cell-based. The following applies: Homo sapiens, JIMT-1; PBD compounds, 72 h incubation. As to the method:
as §1

In data set [5] the test system is MCF7 cells (HER2 low expressing levels cells). Nature of the data set: CellTiter-Glo cell viability assay, MCF7. In kind it is cell-based. The note with it: Homo sapiens, MCF7; PBD compounds, 72 h incubation. As to the method:
as §1

The subject of data set [6] is NCI-N87 cells (HER2 expressing cells). In words: CellTiter-Glo cell viability assay, NCI-N87. The following applies: Homo sapiens, NCI-N87; PBD compounds, 72 h incubation. The class given is cell-based. The procedure: as §1

Broadly, the IC50 is the concentration at which inhibition is half-maximal.

Turning to `C=C1C[C@H]2C=Nc3cc(OCCCOc4cc5c(cc4OC)C(=O)N4CC(=C)C[C@H]4C=N5)c(OC)cc3C(=O)N2C1` [SJG-136], in data set [1], the adverse effects noted entry was “vascular leak syndrome, peripheral edema, liver toxicity and fatigue”; the maximum tolerated dose was 45 μg/m^2.

In the case of `C=C1C[C@H]2C=Nc3cc(OCCCC(=O)Nc4cn(C)c(C(=O)Nc5cc(C(=O)Nc6cc(C(=O)O)n(C)c6)n(C)c5)n4)c(OC)cc3C(=O)N2C1` [Compound 51, (S,Z)-4-(4-(4-(4-(7-methoxy-2-methylene-5-oxo-2,3,5,11a-tetrahydro-1H-benzo[e]pyrrolo[1,2-a][1,4]diazepin-8-yloxy)butanamido)-1-methyl-1H-imidazole-2-carboxamido)-1-methyl-1H-pyrrole-2-carboxamido)-1-methyl-1H-pyrrole-2-carboxylic acid], the IC50 in data set [2] is 260 nM; in data set [3] it was 300 nM; in data set [4], 300 nM; in data set [5] it was 300 nM; in data set [6], 300 nM.
